The record followed here is patent publication US20240034733A1, “KRAS G12D INHIBITORS” (Mirati Therapeutics, Inc., priority 2020, published 2024).

One assay deals with T1, KRas G12D (Homo sapiens, UniProt P01116, G12D).
T1 construct: Avidin-tag (so in the source)
The assay can be described thus: KRas G12D Surface Plasmon Resonance (SPR) Binding Assay. To be noted: Biacore T200, 20° C., 1:1 binding model, read-out: KD (nM), Determination of KRas G12D KD. The method, then:
This Example illustrates that exemplary compounds of the present invention bind to KRas G12D as measured by surface plasmon resonance (SPR).
Briefly, 1 L of 1.05×HBS-Mg buffer (262.5 mM BioUltra Hepes, pH 7.5, 157.5 mM NaCl, 105 mM MgCl2, 0.525 mM TCEP, 0.0305% Brij-35) was prepared and filter sterilized using a 0.22 μm bottle top filter. Approximately 50 mL of 1.05×HBS-Mg buffer was removed and saved for future dilutions. A 50 mL aliquot of DMSO (Sigma Aldrich DMSO Lot. #SHBK2079) was added and continued to stir for 10 minutes, creating the final 1.0×HBS-Mg buffer (250 mM BioUltra Hepes pH 7.5, 150 mM NaCl, 100 mM MgCl2, 0.5 mM TCEP, 0.03% Brij-35).
Biacore T200 instrument was primed using 1.0×HBS-Mg buffer before docking a GE Streptavidin (SA) chip and then primed two additional times prior to beginning the immobilization step. All immobilized protein mixtures were created using 3-5 mg/mL Biotinylated Avidin-tagged KRAS protein using the following immobilization settings: SA chip type, 1 flow cells per cycle, 720 second contact time, and 5 μL/min flow rate. Normalization of the detector was also performed during the immobilization step using the GE BiaNormalize solution.
All compounds were diluted to 10 mM in 100% DMSO prior to being diluted 20× in 1.05× buffer. Another 10× dilution was created using 1.0× buffer prior to performing a series of 3×dilutions to create a compound concentration curve using the following assay settings: 20° C. analysis temperature, General Settings=10 Hz data collection rate and multi-detection; Assay Steps=all set to LMW kinetics; Cycle Types=LMW kinetics (60 s contact time, 120 s dissociation time, 100 μL/min flow rate, extra wash after injection with 50% DMSO, flow path 1, 2, 3, 4); Flow path detection=2−1, 4−3). Data evaluation was performed using the Biacore T200 Evaluation software and data fit to 1:1 binding model.
On the technique in general: Surface plasmon resonance follows binding to a sensor surface in real time, without labels.

The target of assay [1] is T2, GDP-loaded recombinant human KRAS G12D (Homo sapiens, UniProt P01116, G12D).
T2 construct: corresponding to amino acids 1:169, produced at Array BioPharma; biotin (biotinylated); made in house
T2 sequence (P01116 1-169 isoform P01116-2 G12D): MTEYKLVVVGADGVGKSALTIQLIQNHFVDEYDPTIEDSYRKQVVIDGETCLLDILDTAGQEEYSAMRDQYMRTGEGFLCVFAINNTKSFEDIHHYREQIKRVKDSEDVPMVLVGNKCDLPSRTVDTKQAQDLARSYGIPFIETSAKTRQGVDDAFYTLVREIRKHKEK
The experiment in a line: KRas G12D Binding Assay (TR-FRET displacement of Cy5 labelled tracer). To be noted: 60 minute incubation at 22° C. The method, then: This Example illustrates that exemplary compounds of the present invention bind to KRas G12D and are capable of displacing a labeled tracer ligand occupying the KRas G12D binding site.
The ability of a compound to bind to KRAS G12D was measured using a TR-FRET displacement assay. Biotinylated GDP-loaded recombinant human KRAS G12D (corresponding to amino acids 1:169, produced at Array BioPharma) was incubated with a custom-made Cy5 labelled tracer, europium labelled streptavidin and compound (2% DMSO final) in buffer (50 mM HEPES [pH 7.5], 5 mM MgCl2, 0.005% Tween-20 & 1 mM DTT). After a 60 minute incubation at 22° C., the reaction was measured using a PerkinElmer EnVision multimode plate reader via TR-FRET dual wavelength detection, and the percent of control (POC) calculated using a ratiometric emission factor. […] The POC values were fit to a 4-parameter logistic curve and the IC50 value was determined as the concentration where the curve crosses 50 POC.

Assay [2] deals with KRas G12D-mediated phosphorylation of ERK. The experiment in a line: Inhibition of KRas G12D-mediated phosphorylation of ERK in AGS cells. The class given is cell-based. The conditions noted are these: Homo sapiens; AGS cells expressing G12D, 3 hours, phospho-ERK normalized to GAPDH. On the procedure: AGS cells (ATCC CRL-1739) expressing G12D were grown in DMEM medium supplemented with 10% fetal bovine serum, 10 mM HEPES, and Penicillin/Streptomycin. Cells were plated in tissue culture treated 96 well plates at a density of 40,000 cells/well and allowed to attach for 12-14 hours. Diluted compounds were then added in a final concentration of 0.5% DMSO. After 3 hours, the medium was removed, 150 μl of 4.0% formaldehyde was added and the plates incubated at room temperature for 20 minutes. The plates were washed with PBS, and permeabilized with 150p of ice cold 100% methanol for 10 minutes. Non-specific antibody binding to the plates was blocked using 100 μL Licor blocking buffer (Li-Cor Biotechnology, Lincoln NE) for 1 hour at room temperature.
The amount of phosho-ERK was determined using an antibody specific for the phosphorylated form of ERK and compared to the amount of GAPDH. Primary antibodies used for the detection were added as follows: Phospho-ERK (Cell Signaling cs-9101) diluted 1:500 and GAPDH (Millipore MAB374) diluted 1:5000 in Licor block+0.05% Tween 20. The plates were incubated for 2 hours at room temperature. The plates were washed with PBS+0.05% Tween 20.
Secondary antibodies used to visualize primary antibodies were added as follows: Anti-rabbit-680 diluted 1:1000 and Anti-mouse-800 diluted 1:1000 both in Licor block+0.05% Tween20, and were incubated for 1 hour at room temperature. The plates were washed with PBS +0.05% Tween 20. A 100 μl aliquot of PBS was added to each well and the plates were read on a Li-Cor Odyssey CLX plate reader phospho-ERK (Thr202/Tyr204) signal was normalized to the GAPDH signal for each well and percent of DMSO control values were calculated. IC50 values were generated using a 4-parameter fit of the dose response curve

T1 sequence (P01116 1-188 isoform P01116-2 G12D): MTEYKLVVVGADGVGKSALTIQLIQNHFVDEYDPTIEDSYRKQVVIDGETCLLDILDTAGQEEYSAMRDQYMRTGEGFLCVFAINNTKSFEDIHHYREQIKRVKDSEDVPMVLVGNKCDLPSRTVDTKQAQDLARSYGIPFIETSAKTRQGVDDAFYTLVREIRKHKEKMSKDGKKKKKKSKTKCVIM

Broadly, the Kd is a measure of binding affinity in units of concentration. By IC50 is commonly meant the point on the concentration scale where inhibition reaches its midpoint. On to `CN1CCC[C@H]1COc1nc2c(c(N3CC4CCC3CN4)n1)CCN(c1cc(O)cc3ccccc13)C2` (stereo partly drawn) [Example 16, 4-(4-(2,5-diazabicyclo[2.2.2]octan-2-yl)-2-(((S)-1-methylpyrrolidin-2-yl)methoxy)-5,8-dihydropyrido[3,4-d]pyrimidin-7(6H)-yl)naphthalen-2-ol], for which the Kd at KRas G12D is 300 nM. The concentration for half-maximal inhibition (IC50) in assay [1] was found to be 152 nM; in assay [2], 5950 nM.
For `CN1C[C@H](F)C[C@H]1COc1nc(N2C[C@H]3CC[C@@H](C2)N3)c2ccc(-c3cc(O)cc4ccccc34)c(F)c2n1` [Example 29, 4-(4-((1R,5S)-3,8-diazabicyclo[3.2.1]octan-3-yl)-8-fluoro-2-(((2S,4R)-4-fluoro-1-methylpyrrolidin-2-yl)methoxy)quinazolin-7-yl)naphthalen-2-ol], in that order: 5 nM, 1.8 nM and 779 nM.
For `CN1CCC[C@H]1COc1nc(N2CC3CCC2CN3)c2cc(Cl)c(-c3cc(O)cc4ccccc34)c(F)c2n1` (stereo partly drawn) [Example 11, 4-((7R)-4-(2,5-diazabicyclo[2.2.2]octan-2-yl)-6-chloro-8-fluoro-2-(((S)-1-methylpyrrolidin-2-yl)methoxy)quinazolin-7-yl)naphthalen-2-ol], in that order: 16 nM, 10.4 nM and 2840 nM.
As for `CN1CCC[C@H]1COc1nc(N2C[C@H]3CC[C@@H](C2)N3)c2cc(Cl)c(-c3cc(O)cc4ccccc34)c(F)c2n1` [Example 7, 4-(4-((1R,5S)-3,8-diazabicyclo[3.2.1]octan-3-yl)-6-chloro-8-fluoro-2-(((S)-1-methylpyrrolidin-2-yl)methoxy)quinazolin-7-yl)naphthalen-2-ol], the Kd at KRas G12D was 9 nM. In addition, the figures for the IC50 in assay [1] and in assay [2] were 11.2 nM and 1420 nM, respectively.
For `CN1CC(F)(F)C[C@H]1COc1nc(N2C[C@H]3CC[C@@H](C2)N3)c2ccc(-c3cc(O)cc4ccccc34)c(F)c2n1` [Example 31, 4-(4-((1R,5S)-3,8-diazabicyclo[3.2.1]octan-3-yl)-2-(((S)-4,4-difluoro-1-methylpyrrolidin-2-yl)methoxy)-8-fluoroquinazolin-7-yl)naphthalen-2-ol], in that order: 121 nM, 297 nM and 8500 nM.
For `CN1CCC[C@H]1COc1nc(N2CC3CCC2CN3)c2cnc(-c3cc(O)cc4ccccc34)c(F)c2n1` (stereo partly drawn) [Example 14, 4-(4-(2,5-diazabicyclo[2.2.2]octan-2-yl)-8-fluoro-2-(((S)-1-methylpyrrolidin-2-yl)methoxy)pyrido[4,3-d]pyrimidin-7-yl)naphthalen-2-ol], in that order: 36 nM, 30.8 nM and 8610 nM.
For `CN1CCC[C@H]1COc1nc(N2C[C@H]3CC[C@@H](C2)N3)c2ccc(-c3cc(O)cc4ccccc34)cc2n1` [Example 10, 4-(4-((1R,5S)-3,8-diazabicyclo[3.2.1]octan-3-yl)-2-(((S)-1-methylpyrrolidin-2-yl)methoxy)quinazolin-7-yl)naphthalen-2-ol], in that order: 19 nM, 22.9 nM and 5660 nM.
Consider `CN1CCC[C@H]1COc1nc(N2CCNC3(CC3)C2)c2ccc(-c3cc(O)cc4ccccc34)c(F)c2n1` [Example 12, (S)-4-(8-fluoro-2-((1-methylpyrrolidin-2-yl)methoxy)-4-(4,7-diazaspiro[2.5]octan-7-yl)quinazolin-7-yl)naphthalen-2-ol], for which the equilibrium dissociation constant (Kd) on KRas G12D came out at 110 nM. In assay [2], this molecule returned an IC50 of 5560 nM.
On to `CN1CCC[C@H]1COc1nc(N2C[C@H]3CC[C@@H](C2)N3)c2ccc(-c3cc(O)cc4ccccc34)c(F)c2n1` [Example 8, 4-(4-((1R,5S)-3,8-diazabicyclo[3.2.1]octan-3-yl)-8-fluoro-2-(((S)-1-methylpyrrolidin-2-yl)methoxy)quinazolin-7-yl)naphthalen-2-ol], for which the Kd on KRas G12D was 3 nM. For the same molecule, the concentration for half-maximal inhibition (IC50) in assay [1] was determined as 4.3 nM; in assay [2], 271 nM.
Turning to `CN1CCC[C@H]1COc1nc(N2C[C@H]3CC[C@@H]2CN3)c2cnc(-c3cc(O)cc4ccccc34)c(F)c2n1` [Example 15, 4-(4-((1R,4R)-2,5-diazabicyclo[2.2.2]octan-2-yl)-8-fluoro-2-(((S)-1-methylpyrrolidin-2-yl)methoxy)pyrido[4,3-d]pyrimidin-7-yl)naphthalen-2-ol], on KRas G12D, the dissociation constant (Kd) is 93 nM. For the same molecule, it took 7120 nM to reach half-maximal inhibition in assay [2] (IC50).
Take `Fc1c(-c2cccc3cccc(Cl)c23)ccc2c(N3C[C@H]4CC[C@@H](C3)N4)nc(OCC34CCCN3CCC4)nc12` [Example 2, 4-((1R,5S)-3,8-diazabicyclo[3.2.1]octan-3-yl)-7-(8-chloronaphthalen-1-yl)-8-fluoro-2-((tetrahydro-1H-pyrrolizin-7a(5H)-yl)methoxy)quinazoline]: at KRas G12D, the equilibrium dissociation constant (Kd) was 8 nM. For the same molecule, the IC50 was found to be 6.1 nM in assay [1] and 4540 nM in assay [2].
For `Cc1cc2[nH]ncc2c(-c2ccc3c(N4C[C@H]5CC[C@@H](C4)N5)nc(OC[C@@H]4CCCN4C)nc3c2F)c1C` [Example 30, 4-((1R,5S)-3,8-diazabicyclo[3.2.1]octan-3-yl)-7-(5,6-dimethyl-1H-indazol-4-yl)-8-fluoro-2-(((S)-1-methylpyrrolidin-2-yl)methoxy)quinazoline], in that order: 152 nM, 57 nM and 5090 nM.
With `CN1CCC[C@H]1COc1nc(N2C[C@H]3CC[C@@H](C2)N3)c2ccc(-c3cccc4ccc(F)cc34)c(F)c2n1` [Example 13, 4-((1R,5S)-3,8-diazabicyclo[3.2.1]octan-3-yl)-8-fluoro-7-(7-fluoronaphthalen-1-yl)-2-(((S)-1-methylpyrrolidin-2-yl)methoxy)quinazoline], the Kd on KRas G12D is 78 nM. Also, the figures for the IC50 in assay [1] and in assay [2] were 61.9 nM and 5560 nM, respectively.
